Assay results from patent publication US7820689B2, “Methods and compositions for preventing or treating cardiovascular disease” (priority 2006, dated 2010).

How the values were obtained:
C57BL/6 mice = experiment: Carotid artery ligation vascular remodeling model, morphometry; assay type: in vivo; details: for neointima/media (N/M) ratio: 28 days after surgery, controls 1.4±0.6; for lumen area / neointima area: 28 days; for lumen area: PBS 12859±7258; for neointima area: PBS 33623±9377
Source text: Adult C57BL/6 mice (8-12 weeks) were anesthetized by intraperitoneal injection of sodium pentobarbital. The left common carotid artery was isolated and ligated completely with a 6-0 silk suture near the carotid bifurcation. […] After completing the treatment the animals were sacrificed and the segment of the left common carotid artery just proximal to the ligation was excised, fixed in 4% paraformaldehyde, and embedded in paraffin. Five transverse sections per animal were cut at 100 μm intervals and stained with hematoxylin-eosin. The borders of the internal lumen, internal elastic lamina (IEL), and external elastic lamina (EEL) were traced on a digitizing board using Meta Imaging Series 5.0 software ([…].). The luminal, IEL, and EEL areas were measured. The neointima area was calculated by subtracting the luminal area from the IEL area, and the media area was calculated by subtracting the IEL area from the EEL area. The total vascular area was represented by EEL area. The ratio of neointima to media area (N/M ratio) was calculated. Average values were obtained from morphometric analysis of each section of the animal.
Data were given as mean±SD. The Mann-Whitney U test was used to compare continuous variables between the two groups. […] All statistical analyses were performed using SPSS 12.0 (SPSS Inc. Chicago, Ill., USA). The statistical significance level was set at P<0.05, two-tailed.

microglia = details: cited from earlier work
[1] = test system: IL-6 release from THP-1 cells after oxLDL stimulation; experiment: oxLDL-induced IL-6 release in THP-1 macrophage culture (ELISA); assay type: cell-based, human
Description: (§1) THP-1 cells were grown in the RPMI-1640 medium containing 10% fetal bovine serum at 37° C. in 5% CO2. The cells were differentiated to macrophages after treatment of the culture with 100 nM PMA for 24 hours. The cell suspension (5×10^5) was added in 0.5 mL into each well of the tissue culture plates. For each experiment, naloxone was prepared immediately before use. LPS was dissolved in sterile water and stored at −70° C. in aliquots. LDL was isolated from human endotoxin-free heparin plasma and was oxidized using CuSO4. In brief, LDL (1 mL, 1 mg/mL) was dialyzed in 500 mL phosphate-buffered saline (PBS, pH 7.4) overnight. Copper sulfate was added to a final concentration of 5 μM, and the LDL was allowed to oxidize at room temperature for 24 hours.
(§2) The supernatants were harvested and the TNF-α, IL-6, and MCP-1 levels were determined by ELISA. Superoxide production in the THP-1 cell culture was measured by lucigenin-enhanced chemiluminescence as described previously (Khadour F H, Panas D, Ferdinandy P, et al. Am J Physiol Heart Circ Physiol, 28:H1108-15 2002). LPS-treated THP-1 cells were treated with PBS containing 1.25 mM lucigenin, and counts were obtained for a 10-minute period in a luminometer (Berthold Technologies, Germany) as relative light units (RLU) emitted. Background counts determined in cell-free preparations were subtracted. Superoxide levels were reported as RLU per 10 minutes and were normalized to the volume (mL) of cell suspension added (i.e., RUL/10 min/mL).

[2] = test system: superoxide production in THP-1 cell culture; experiment: LPS-induced macrophage superoxide production, lucigenin-enhanced chemiluminescence; assay type: cell-based, human
Description: as §1, with “For each experiment, naloxone was prepared immediately before use.” left out
as §2
We used lucigenin-enhanced chemiluminescence to assess the DM effect on macrophage superoxide production after stimulation.

[3] = test system: TNF-α release from THP-1 cells after oxLDL stimulation; experiment: oxLDL-induced TNF-α release in THP-1 macrophage culture (ELISA); assay type: cell-based, human; details: for TNF-α in medium: oxLDL, oxLDL alone 2.64±0.61; for TNFα in medium: oxLDL 10 μg/mL, oxLDL alone 1.70±0.06
Description: as §1, §2

[4] = test system: TNF-α production from the THP-1 cell culture after LPS stimulation; experiment: LPS-induced TNF-α production in PMA-differentiated THP-1 macrophage culture (ELISA); assay type: cell-based, human; details: for TNF-α production after LPS: 1 h before 100 ng/mL LPS, 24 h; for TNFα in medium: LPS 100 ng/mL, LPS alone 8.02±0.42
Description: as §1
The TNF-α level in the supernatant was determined by ELISA.
as §2
To investigate the DM effect on macrophage activation, determined the effective DM concentrations were first needed. In a pilot experiment, the effective DM concentration that inhibited TNF-α production from macrophages was examined. […] The THP-1 cell culture was pretreated for 1 hour with various concentrations of DM (1-10^−8 μM) prior to treatment with 100 ng/mL LPS for 24 hours. The TNF-α level in the supernatant was determined by ELISA. […] One μM DM could reduce TNF-α production up to 44 percent in the THP-1 cell culture after LPS stimulation (Table 3). Therefore, subsequent experiments were performed with these effective DM concentrations (0.01, 0.1, and 1 μM).

[5] = test system: TNF-α production from the THP-1 cell culture after LPS stimulation; experiment: as above; assay type: cell-based, human; details: for TNF-α in medium: LPS, LPS alone 8.85±0.81; for TNF-α production after LPS: 1 h before 100 ng/mL LPS, 24 h

With `COc1ccc2c(c1)[C@]13CCCC[C@@H]1[C@H](C2)N(C)CC3` [DM, (+)-3-methoxy-17-methyl-9α,13α,14α-morphinan] the “neointima/media (N/M) ratio” value (C57BL/6 mice; DM 5 mg/kg/day 4 weeks, P=NS) was 1.1±0.7, the “neointima/media (N/M) ratio” value (C57BL/6 mice; DM 10 mg/kg/day 4 weeks) was 0.7±0.3 and the “neointima/media (N/M) ratio” value (C57BL/6 mice; DM 20 mg/kg/day 4 weeks) was 0.4±0.2. For the same compound, the “neointima/media (N/M) ratio” value (C57BL/6 mice; DM 40 mg/kg/day 4 weeks) was 0.5±0.2, the microglia activation (microglia; 1 μM DM, Liu et al. 2003) was “could inhibit microglia activation” and the IL-6 in medium ([1]; DM 0.01 μM pretreatment, oxLDL alone 2.46±1.20) was 1.40 ± 0.58 ng/mL. The IL-6 in medium ([1]; DM 0.1 μM pretreatment, oxLDL alone 2.46±1.20) was 1.28 ± 0.64 ng/mL, the IL-6 in medium ([1]; DM 1 μM pretreatment, oxLDL alone 2.46±1.20) was 1.33 ± 0.67 ng/mL and the macrophage superoxide production ([2]; DM 0.01 μM pretreatment, LPS alone 612,000±105,000) was 341,000±82,000 RLU/15 min/mL. For the same compound, the macrophage superoxide production ([2]; DM 0.1 μM pretreatment, LPS alone 612,000±105,000) was 303,000±109,000 RLU/15 min/mL, the macrophage superoxide production ([2]; DM 1 μM pretreatment, LPS alone 612,000±105,000) was 257,000±45,000 RLU/15 min/mL and the TNF-α in medium ([3]; DM 0.01 μM pretreatment) was 1.80 ± 0.53 ng/mL. It also gave a TNF-α in medium ([3]; DM 0.1 μM pretreatment) of 1.75 ± 0.33 ng/mL, a TNF-α in medium ([3]; DM 1 μM pretreatment) of 1.77 ± 0.42 ng/mL and a TNF-α in medium ([4]; DM 0.01 μM pretreatment, LPS, LPS alone 8.85±0.81) of 6.93 ± 0.76 ng/mL. The “TNF-α production after LPS” value ([4]; DM pretreatment 1 μM) was 56 ± 10 % control, the “TNF-α production after LPS” value ([4]; DM pretreatment 10^−2 μM) was 74 ± 4 % control and the “TNF-α production after LPS” value ([4]; DM pretreatment 10^−6 μM) was 83 ± 3 % control. For the same compound, the “reduction of TNF-α production” value ([4]; One μM DM, THP-1 cell culture after LPS stimulation) was “up to 44%”, the “most effective DM concentrations that suppressed macrophage TNF-α production” value ([4]; THP-1, after LPS stimulation) was 0.01 to 1 µM and the TNF-α in medium ([5]; DM 0.1 μM pretreatment) was 6.42 ± 0.73 ng/mL. For the same compound, the TNF-α in medium ([5]; DM 1 μM pretreatment) was 5.85 ± 1.12 ng/mL, the “TNF-α production after LPS” value ([5]; DM pretreatment 10^−1 μM) was 72 ± 2 % control and the “TNF-α production after LPS” value ([5]; DM pretreatment 10^−4 μM) was 81 ± 9 % control. The “TNF-α production after LPS” value ([5]; DM pretreatment 10^−8 μM) was 95 ± 7 % control.

With `C=CCN1CC[C@]23c4c5ccc(O)c4O[C@H]2C(=O)CC[C@@]3(O)[C@H]1C5` [Naloxone, 17-allyl-4,5α-epoxy-3,14-dihydroxymorphinan-6-one] the lumen area (C57BL/6 mice; 10 mg/kg/day) was 24475±5261 μm^2, the neointima area (C57BL/6 mice; 10 mg/kg/day) was 20052±4372 μm^2 and the lumen area (C57BL/6 mice; 20 mg/kg/day) was 26452±9024 μm^2. It also gave a neointima area (C57BL/6 mice; 20 mg/kg/day) of 14233±4040 μm^2, a lumen area (C57BL/6 mice; 25 mg/kg/day) of 29650±5643 μm^2 and a neointima area (C57BL/6 mice; 25 mg/kg/day) of 13865±3494 μm^2. For the same compound, the “Media area regression coefficient (naloxone)” value (C57BL/6 mice; Naloxone 10 mg/kg/day) was 2950, the “Neointima area regression coefficient (naloxone)” value (C57BL/6 mice; Naloxone 10 mg/kg/day) was −13951 and the “Total area regression coefficient (naloxone)” value (C57BL/6 mice; Naloxone 10 mg/kg/day) was −11000. The “Lumen area regression coefficient (naloxone)” value (C57BL/6 mice; Naloxone 10 mg/kg/day, Area = B1 + B2 (Naloxone) + B3 (Distance (mm))) was 12016, the “Lumen area regression coefficient (naloxone)” value (C57BL/6 mice; Naloxone 20 mg/kg/day) was 14033 and the “Media area regression coefficient (naloxone)” value (C57BL/6 mice; Naloxone 20 mg/kg/day) was 10001. For the same compound, the “Neointima area regression coefficient (naloxone)” value (C57BL/6 mice; Naloxone 20 mg/kg/day) was −19584, the “Total area regression coefficient (naloxone)” value (C57BL/6 mice; Naloxone 20 mg/kg/day) was −9582 and the “Lumen area regression coefficient (naloxone)” value (C57BL/6 mice; Naloxone 25 mg/kg/day) was 16993. For the same compound, the “Media area regression coefficient (naloxone)” value (C57BL/6 mice; Naloxone 25 mg/kg/day) was 8112, the “Neointima area regression coefficient (naloxone)” value (C57BL/6 mice; Naloxone 25 mg/kg/day) was −20380 and the “Total area regression coefficient (naloxone)” value (C57BL/6 mice; Naloxone 25 mg/kg/day) was −12267. For the same compound, the “influence of naloxone treatment in regression model of carotid remodeling” value (C57BL/6 mice; multiple regression, independent of the distance to ligation) was “had a statistically significant influence on the lumen, neointima, and total vascular areas”, the “neuron protection / microglia activation” value (microglia; 1 μM naloxone, Liu et al. 2000) was “could protect neurons through inhibition of microglia activation” and the IL-6 in medium ([1]; 0.01 μM pretreatment, oxLDL alone 1.51±0.08) was 1.05 ± 0.03 ng/mL. For the same compound, the IL-6 in medium ([1]; 0.1 μM pretreatment, oxLDL alone 1.51±0.08) was 1.01 ± 0.01 ng/mL, the IL-6 in medium ([1]; 1 μM pretreatment, oxLDL alone 1.51±0.08) was 1.05 ± 0.07 ng/mL and the macrophage superoxide production ([2]; 0.1 μM pretreatment, LPS alone 817,000±90,000) was 364,000±202,000 RLU/10 min/mL. For the same compound, the macrophage superoxide production ([2]; 1 μM pretreatment, LPS alone 817,000±90,000) was 362,000±24,000 RLU/10 min/mL, the TNFα in medium ([3]; 0.01 μM pretreatment) was 0.85 ± 0.12 ng/mL and the TNFα in medium ([3]; 0.1 μM pretreatment) was 0.62 ± 0.04 ng/mL. For the same compound, the TNFα in medium ([3]; 1 μM pretreatment) was 0.60 ± 0.05 ng/mL, the TNFα in medium ([4]; 0.1 μM pretreatment) was 4.10 ± 0.37 ng/mL and the TNFα in medium ([4]; 1 μM pretreatment) was 4.41 ± 0.36 ng/mL. The “reduction of TNFα production” value ([4]; 0.01-1 μM, THP1 cell culture after LPS stimulation) was 50%, the TNFα in medium ([5]; 0.01 μM pretreatment, LPS 100 ng/mL, LPS alone 8.02±0.42) was 4.28 ± 0.39 ng/mL and the “most effective naloxone concentration range” value ([5]; inhibition of TNF-α production, THP-1, LPS) was 0.01 to 1 µM. For the same compound, the “TNF-α production after LPS” value ([5]; naloxone pretreatment 1 μM) was 55 ± 2 % control, the “TNF-α production after LPS” value ([5]; naloxone pretreatment 10^−1 μM) was 51 ± 6 % control and the “TNF-α production after LPS” value ([5]; naloxone pretreatment 10^−2 μM) was 53 ± 6 % control. For the same compound, the “TNF-α production after LPS” value ([5]; naloxone pretreatment 10^−3 μM) was 67 ± 3 % control, the “TNF-α production after LPS” value ([5]; naloxone pretreatment 10^−4 μM) was 74 ± 7 % control and the “TNF-α production after LPS” value ([5]; naloxone pretreatment 10^−5 μM) was 93 ± 4 % control. The “TNF-α production after LPS” value ([5]; naloxone pretreatment 10^−6 μM) was 90 ± 10 % control.
